Laboratory results: patent US6002023A, “2-debenzoyl-2-acyl taxol derivatives and method for making same” (Virginia Tech Intellectural Properties, Inc., priority 1997, dated 1999)

These compounds were tested on P-388 lymphocytic leukemia cells (assay: cytotoxicity, cell culture assay using P-388 lymphocytic leukemia cells, compared with taxol). Conditions: P-388 cell culture assay.
Type: cell-based
Source text: Acylation of 22 with various aromatic carboxylic acids in the presence of dicyclohexylcarbodiimide and 4-pyrrolidinopyridine has led to the preparation of various 2-debenzoyl-2-acyl taxols 13. […] For details of the cell culture assay, see Abbott, B. J., "Protocol 14 of Instruction 275," National Cancer Institute, National Institutes of Health, Jan. 24, 1978.

Compound | biological activity as compared with taxol (in words)
CC(=O)O[C@H]1C(=O)[C@@]2(C)[C@H]([C@H](OC(=O)c3ccccc3Cl)[C@]3(O)C[C@H](OC(=O)[C@H](O)[C@@H](NC(=O)c4ccccc4)c4ccccc4)C(C)=C1C3(C)C)[C@]1(OC(C)=O)CO[C@@H]1C[C@@H]2O [Compound 13o] | increased bioactivity as compared with taxol
CC(=O)OC1C(=O)C2(C)C(O)CC3OCC3(OC(C)=O)C2C(OC(=O)c2cccc(Cl)c2)C2(O)CC(OC(=O)C(O)C(NC(=O)c3ccccc3)c3ccccc3)C(C)=C1C2(C)C (centres unmarked) [Compound 13d] | much greater biological activity than taxol

Same assay, conditions: P-388 leukemia; value of less than 1 = more active than taxol

Compound | ED50 /ED50 (taxol)
CC(=O)O[C@H]1C(=O)[C@@]2(C)[C@H]([C@H](OC(=O)c3cccc(F)c3)[C@]3(O)C[C@H](OC(=O)[C@H](O)[C@@H](NC(=O)c4ccccc4)c4ccccc4)C(C)=C1C3(C)C)[C@]1(OC(C)=O)CO[C@@H]1C[C@@H]2O [Compound 13j] | 0.35
CC(=O)O[C@H]1C(=O)[C@@]2(C)[C@H]([C@H](OC(=O)c3ccccc3Cl)[C@]3(O)C[C@H](OC(=O)[C@H](O)[C@@H](NC(=O)c4ccccc4)c4ccccc4)C(C)=C1C3(C)C)[C@]1(OC(C)=O)CO[C@@H]1C[C@@H]2O [Compound 13o] | 0.011
CC(=O)O[C@H]1C(=O)[C@@]2(C)[C@H]([C@H](OC(=O)c3ccc(C#N)cc3)[C@]3(O)C[C@H](OC(=O)[C@H](O)[C@@H](NC(=O)c4ccccc4)c4ccccc4)C(C)=C1C3(C)C)[C@]1(OC(C)=O)CO[C@@H]1C[C@@H]2O [Compound 13aa] | 30
CC(=O)O[C@H]1C(=O)[C@@]2(C)[C@H]([C@H](OC(C)=O)[C@]3(O)C[C@H](OC(=O)[C@H](O)[C@@H](NC(=O)c4ccccc4)c4ccccc4)C(C)=C1C3(C)C)[C@]1(OC(C)=O)CO[C@@H]1C[C@@H]2O [Compound 13w] | 28
CC(=O)O[C@H]1C(=O)[C@@]2(C)[C@H]([C@H](OC(=O)c3cccc(C(F)(F)F)c3)[C@]3(O)C[C@H](OC(=O)[C@H](O)[C@@H](NC(=O)c4ccccc4)c4ccccc4)C(C)=C1C3(C)C)[C@]1(OC(C)=O)CO[C@@H]1C[C@@H]2O [Compound 13i] | 15
CC(=O)OC1C(=O)C2(C)C(O)CC3OCC3(OC(C)=O)C2C(OC(=O)c2cccc(Cl)c2)C2(O)CC(OC(=O)C(O)C(NC(=O)c3ccccc3)c3ccccc3)C(C)=C1C2(C)C (centres unmarked) [Compound 13d] | 0.1
CC(=O)O[C@H]1C(=O)[C@@]2(C)[C@H]([C@H](OC(=O)c3ccc(Cl)c(Cl)c3)[C@]3(O)C[C@H](OC(=O)[C@H](O)[C@@H](NC(=O)c4ccccc4)c4ccccc4)C(C)=C1C3(C)C)[C@]1(OC(C)=O)CO[C@@H]1C[C@@H]2O [Compound 13m] | 0.003
CC(=O)O[C@H]1C(=O)[C@@]2(C)[C@H]([C@H](OC(=O)c3cccc(N)c3)[C@]3(O)C[C@H](OC(=O)[C@H](O)[C@@H](NC(=O)c4ccccc4)c4ccccc4)C(C)=C1C3(C)C)[C@]1(OC(C)=O)CO[C@@H]1C[C@@H]2O [Compound 13a] | 1500
CC(=O)O[C@H]1C(=O)[C@@]2(C)[C@H]([C@H](OC(=O)c3ccc(Cl)cc3)[C@]3(O)C[C@H](OC(=O)[C@H](O)[C@@H](NC(=O)c4ccccc4)c4ccccc4)C(C)=C1C3(C)C)[C@]1(OC(C)=O)CO[C@@H]1C[C@@H]2O [Compound 13bb] | 150
CC(=O)O[C@H]1C(=O)[C@@]2(C)[C@H]([C@H](OC(=O)c3ccoc3)[C@]3(O)C[C@H](OC(=O)[C@H](O)[C@@H](NC(=O)c4ccccc4)c4ccccc4)C(C)=C1C3(C)C)[C@]1(OC(C)=O)CO[C@@H]1C[C@@H]2O [Compound 13v] | 1.4
CC(=O)OC1C(=O)C2(C)C(O)CC3OCC3(OC(C)=O)C2C(OC(=O)c2cc([N+](=O)[O-])cc([N+](=O)[O-])c2)C2(O)CC(OC(=O)C(O)C(NC(=O)c3ccccc3)c3ccccc3)C(C)=C1C2(C)C (centres unmarked) [Compound 13e] | 2.0
CC(=O)OC1C(=O)C2(C)C(O)CC3OCC3(OC(C)=O)C2C(OC(=O)c2cccs2)C2(O)CC(OC(=O)C(O)C(NC(=O)c3ccccc3)c3ccccc3)C(C)=C1C2(C)C (centres unmarked) [Compound 13k] | 10
